This is an account of results in patent publication US11780840B2 (Incyte Corporation, priority 2020, dated 2023).

Assay [1] has as its target T1, pseudo-kinase domain (JH2, amino-acids 536-812 with 3 surface mutations W659A, W777A, F794H) of human Wild Type JAK2 (Homo sapiens, UniProt O60674, F794H/W659A/W777A).
T1 construct: pseudo-kinase domain (JH2, amino-acids 536-812 with 3 surface mutations W659A, W777A, F794H); His (C); Avi (biotinylated) (C); purchased BPS Bioscience 79463; host or cells: baculovirus expression system
In words: JAK2 LanthaScreen JH2-WT Binding Assay. As to conditions: JAK2 JH2-WT (0.145 nM), 50 nM Fluorescent JAK2-JH2 Tracer, 1 hour at 25° C.; read-out: JH2 BIND WT. Put shortly: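 Compounds, serially diluted, were mixed with 0.145 nM JH2 domain, 50 nM tracer and 0.25 nM streptavidin-Tb cryptate, then incubated 1 hour at 25° C before LanthaScreen reading. Wells containing 2 mM ATP defined non-specific binding. Four-parameter dose-response curves gave IC50.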
A general note: TR-FRET usually uses a lanthanide donor and a delayed reading to cut background.

Assay [2] has as its target T2, catalytic domain (JH1, amino acids 826-1132) of human JAK2 (Homo sapiens, UniProt O60674).
T2 construct: catalytic domain (JH1, amino acids 826-1132) of human JAK2; FLAG (N); purchased Carna Biosciences 08-445-20N; host or cells: baculovirus expression system
In words: JAK2 LanthaScreen JH1 Binding Assay. As to conditions: JAK2 JH1 (1.5 nM), 50 nM fluorescent JAK2-JH1 tracer, 2 hours at 25° C.; read-out: JH1 BIND. Put shortly: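 FLAG-tagged, biotinylated JAK2 JH1 (aa 826-1132, baculovirus-expressed; 1.5 nM) incubated 2 h at 25° C with compounds, 50 nM fluorescent tracer and 0.5 nM Streptavidin-Tb in Tris pH 7.5 buffer with MgCl2, Brij-35, BSA, EGTA, glycerol, DTT. Nonspecific binding defined with 2 mM ATP; TR-FRET IC50 from four-parameter fit.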

Assay [3] has as its target T3, pseudo-kinase domain (JH2, amino-acids 536-812 with 3 surface mutations W659A, W777A, F794H) of human V617F mutant JAK2 (Homo sapiens, UniProt O60674, F794H/V617F/W659A/W777A).
T3 construct: pseudo-kinase domain (JH2, amino-acids 536-812 with 3 surface mutations W659A, W777A, F794H); His (C); Avi (biotinylated) (C); purchased BPS Bioscience 79498; host or cells: baculovirus expression system
In words: JAK2 LanthaScreen JH2-V617F Binding Assay. The following applies: JAK2 JH2-V617F (0.26 nM), 50 nM Fluorescent JAK2-JH2 Tracer, 1 hour at 25° C.; read-out: JH2 BIND V617F. Put shortly:
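Competition of compounds with a fluorescent tracer (50 nM) for the biotinylated domain (0.26 nM), detected via streptavidin-Tb (0.25 nM) after 1 h at 25° C in pH 7.5 Tris buffer containing glycerol, BSA and Brij-35. ATP at 2 mM gave background. IC50 by four-parameter fit.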

Where only a bound is given, the exact number is not on record here.

T3 sequence (O60674 536-812 V617F/W659A/W777A/F794H): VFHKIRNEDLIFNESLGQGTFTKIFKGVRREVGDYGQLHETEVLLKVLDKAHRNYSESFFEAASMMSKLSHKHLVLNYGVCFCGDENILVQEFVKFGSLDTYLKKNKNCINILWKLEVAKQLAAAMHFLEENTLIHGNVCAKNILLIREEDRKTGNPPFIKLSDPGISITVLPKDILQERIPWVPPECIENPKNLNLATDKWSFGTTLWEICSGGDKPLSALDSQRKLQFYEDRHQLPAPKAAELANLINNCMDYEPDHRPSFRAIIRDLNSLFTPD
T1 sequence (O60674 536-812 W659A/W777A/F794H): as the sequence (O60674 536-812 V617F/W659A/W777A/F794H) above, with F82V counted along it
T2 sequence (O60674 826-1132): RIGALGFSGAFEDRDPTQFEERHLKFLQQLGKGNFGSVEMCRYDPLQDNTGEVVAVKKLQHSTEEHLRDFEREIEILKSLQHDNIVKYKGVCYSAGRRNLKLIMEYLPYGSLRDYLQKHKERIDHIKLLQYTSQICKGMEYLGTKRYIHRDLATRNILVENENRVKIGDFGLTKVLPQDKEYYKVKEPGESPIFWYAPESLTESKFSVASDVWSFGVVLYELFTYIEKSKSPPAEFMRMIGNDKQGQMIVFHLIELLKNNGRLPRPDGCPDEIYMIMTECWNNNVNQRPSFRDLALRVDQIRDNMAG

With `CC(C)n1c(=O)n(C)c2cnc3[nH]c(-c4cnn(CC(C)(C)O)c4)c(-c4ccc5c(c4)CCC5O)c3c21` (stereo not drawn) [Example 86, 8-(1-Hydroxy-2,3-dihydro-1H-inden-5-yl)-7-(1-(2-hydroxy-2-methylpropyl)-1H-pyrazol-4-yl)-1-isopropyl-3-methyl-3,6-dihydroimidazo[4,5-d]pyrrolo[2,3-b]pyridin-2(1H)-one], the IC50 in assay [1] is at most 10 nM; in assay [2], over 1000 nM; in assay [3], 10 to 100 nM.
`Cn1ncc2cc(-c3c(-c4cnn(Cc5ccncc5)c4)[nH]c4ncc5c(c34)n(C3CCCC3)c(=O)n5C)ccc21` [Example 53, 1-Cyclopentyl-3-methyl-8-(1-methyl-1H-indazol-5-yl)-7-(1-(pyridin-4-ylmethyl)-1H-pyrazol-4-yl)-3,6-dihydroimidazo[4,5-d]pyrrolo[2,3-b]pyridin-2(1H)-one]: the IC50 in assay [1] was at most 10 nM; in assay [2], 100 to 500 nM; in assay [3], at most 10 nM.
Turning to `Cn1c(=O)n(C)c2c3c(C4CC4)c(-c4ccc(CN5CCC(S(C)(=O)=O)CC5)cc4)[nH]c3ncc21` [Example 34], the IC50 in assay [1] is 500 to 1000 nM; in assay [2] it was 500 to 1000 nM; in assay [3], over 1000 nM.
As for `CC(C)n1c(=O)n(C)c2cnc3[nH]c(Cc4ccc(C#N)cc4)c(-c4ccc5c(cnn5C)c4)c3c21` [Example 96, 4-((1-Isopropyl-3-methyl-8-(1-methyl-1H-indazol-5-yl)-2-oxo-1,2,3,6-tetrahydroimidazo [4,5-d]pyrrolo[2,3-b]pyridin-7-yl)methyl) benzonitrile], the IC50 in assay [1], in assay [2] and in assay [3] was over 1000 nM in each case.
For `Cn1c(=O)n(C2CCOCC2)c2c3c(-c4ccccc4)c(-c4ccc(CN5CCC(S(C)(=O)=O)CC5)cc4)[nH]c3ncc21` [Example 46, 3-Methyl-7-(4-((4-(methylsulfonyl)piperidin-1-yl)methyl)phenyl)-8-phenyl-1-(tetrahydro-2H-pyran-4-yl)-3,6-dihydroimidazo[4,5-d]pyrrolo[2,3-b] pyridin-2(1H)-one], the IC50 in assay [1] was at most 10 nM; in assay [2], 500 to 1000 nM; in assay [3], at most 10 nM.
With `Cn1ncc2cc(-c3c(C4=CCCCC4)[nH]c4ncc5c(c34)n(C3CCCC3)c(=O)n5C)ccc21` [Example 69, 7-(Cyclohex-1-en-1-yl)-1-cyclopentyl-3-methyl-8-(1-methyl-1H-indazol-5-yl)-3,6-dihydroimidazo[4,5-d]pyrrolo[2,3-b]pyridin-2(1H)-one], the values for the IC50 in assay [1], in assay [2] and in assay [3] were at most 10 nM, over 1000 nM and at most 10 nM, respectively.
`Cn1c(=O)n(-c2ccccc2)c2c3cc(-c4cnn(C5CCS(=O)(=O)C5)c4)[nH]c3ncc21` (stereo not drawn) [Example 6, 7-(1-(1,1-Dioxidotetrahydro-thiophen-3-yl)-1H-pyrazol-4-yl)-3-methyl-1-phenyl-3,6-dihydroimidazo[4,5-d]pyrrolo[2,3-b]pyridin-2(1H)-one]: the IC50 in assay [1] lay within 100 to 500 nM; in assay [2], 10 to 100 nM; in assay [3], 100 to 500 nM.
With `CCN1CCN(c2ccc(-c3cc4c(ncc5c4n(-c4ccccn4)c(=O)n5C)[nH]3)cc2)CC1` [Example 9, 7-(4-(4-Ethylpiperazin-1-yl)phenyl)-3-methyl-1-(pyridin-2-yl)-3,6-dihydroimidazo[4,5-d]pyrrolo[2,3-b]pyridin-2(1H)-one], the IC50 in assay [1], in assay [2] and in assay [3] was over 1000 nM throughout.
